This is an account of results in patent US8101761B2, “(E)-N-{3-[1-(8-fluoro-11H-10-OXA-1-AZA-dibenzo [A,D] cyclohepten-5ylidene)-propyl]-phenyl}-methanesulfonamide as glucocorticoid receptor modulator for the treatment of rheumatoid arthritis” (Eli Lilly and Company, priority 2008, dated 2012).

The target in this assay is T1, human mineralocorticoid receptor (MR) (Homo sapiens, UniProt P08235).
T1 construct: expressed in transfected cells; host or cells: HEK293, transient transfection, CMV promoter plasmid
T1 sequence (P08235 1-984): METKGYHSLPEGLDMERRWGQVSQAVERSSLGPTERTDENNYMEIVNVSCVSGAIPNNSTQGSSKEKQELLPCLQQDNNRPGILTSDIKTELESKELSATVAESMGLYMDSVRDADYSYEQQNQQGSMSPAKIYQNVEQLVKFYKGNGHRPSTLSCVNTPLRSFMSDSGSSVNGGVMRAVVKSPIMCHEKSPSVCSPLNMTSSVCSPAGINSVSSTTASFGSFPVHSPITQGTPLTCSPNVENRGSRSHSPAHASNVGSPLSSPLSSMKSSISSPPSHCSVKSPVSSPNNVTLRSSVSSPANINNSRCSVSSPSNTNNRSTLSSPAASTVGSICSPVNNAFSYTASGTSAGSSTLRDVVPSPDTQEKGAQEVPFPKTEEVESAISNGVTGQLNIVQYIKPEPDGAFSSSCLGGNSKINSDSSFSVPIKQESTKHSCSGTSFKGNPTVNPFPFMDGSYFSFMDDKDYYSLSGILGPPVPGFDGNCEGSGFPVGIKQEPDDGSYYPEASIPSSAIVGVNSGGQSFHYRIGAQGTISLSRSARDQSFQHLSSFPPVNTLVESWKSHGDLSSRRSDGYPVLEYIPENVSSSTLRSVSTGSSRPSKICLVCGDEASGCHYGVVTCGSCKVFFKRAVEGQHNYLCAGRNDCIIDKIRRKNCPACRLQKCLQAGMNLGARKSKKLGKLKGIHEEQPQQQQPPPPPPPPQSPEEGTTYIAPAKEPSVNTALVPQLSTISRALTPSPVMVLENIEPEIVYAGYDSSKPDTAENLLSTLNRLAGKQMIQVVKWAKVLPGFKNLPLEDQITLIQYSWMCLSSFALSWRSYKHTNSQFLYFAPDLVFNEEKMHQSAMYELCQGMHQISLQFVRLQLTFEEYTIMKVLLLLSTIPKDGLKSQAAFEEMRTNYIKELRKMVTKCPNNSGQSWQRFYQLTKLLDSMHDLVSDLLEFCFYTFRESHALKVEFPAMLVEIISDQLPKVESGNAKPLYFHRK
The experiment in a line: Nuclear hormone receptor functional modulation assay (GRE-luciferase reporter, HEK293), MR. Format: cell-based. The following applies: agonist mode, mean of n=4 or 5. From the text: The solvents, reagents, and ligands employed in the functional assay are readily available from commercial sources, or can be prepared by one of ordinary skill in the art.
Human embryonic kidney HEK293 cells are transfected with steroid hormone receptor and reporter gene plasmids using Fugene™ transfection reagent. Briefly, the reporter plasmid containing two copies of probasin ARE and TK(thymidine kinase) promoter upstream of the luciferase reporter cDNA, is transfected into HEK293 cells with a plasmid constitutively expressing human androgen receptor (AR) using viral CMV(cytomegalovirus) promoter. The reporter plasmid containing two copies of GRE and TK promoter upstream of the luciferase reporter cDNA is transfected with a plasmid constitutively expressing either human glucocorticoid receptor (GR), human mineralocorticoid receptor (MR), or human progesterone receptor (PR) using viral CMV promoter. […] After 24-hours incubation with test compounds, cells are lysed and luciferase activity is determined using standard techniques.
Data are fitted to a four parameter-fit logistic curve fit to determine EC50 values. […] IC50 values may be determined similarly using antagonist mode assay data. Percent inhibitions may also be determined relative to the response in the presence of agonist alone, as described above.
On the technique in general: In a reporter assay the amount or activity of a reporter protein is the signal.

Broadly, the EC50 is the concentration that produces a half-maximal response.

Turning to `CC/C(=C1\c2ccc(F)cc2OCc2ncccc21)c1cccc(NS(C)(=O)=O)c1` [Compound (I), (E)-N-{3-[1-(8-Fluoro-11H-10-oxa-1-aza-dibenzo[a,d]cyclohepten-5-ylidene)-propyl]-phenyl}-methanesulfonamide], the “efficacy in activating transcription, MR” value (relative to 30 nM aldosterone) is given as “about 11%”. Also, the EC50 (read-out: EC50 in activating transcription, MR) is above 10 µM.
